Source: PubChem BioAssay (NCI)
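Following 48 hours of exposure in 96-well plates, responses at five concentrations were used to interpolate endpoints linearly. GI50: concentration for 50% inhibition of growth. TGI marks complete inhibition of growth.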

What was measured:
Assay in all cases: NCI-60 cell line screen, 48 h
786-0 renal = system: 786-0 renal
A498 renal = system: A498 renal
A549 NSCLC = system: A549 NSCLC
ACHN renal = system: ACHN renal
BT-549 breast = system: BT-549 breast
CAKI-1 renal = system: CAKI-1 renal
CCRF-CEM leukemia = system: CCRF-CEM leukemia
COLO 205 colon = system: COLO 205 colon
DU-145 prostate = system: DU-145 prostate
EKVX NSCLC = system: EKVX NSCLC
HCC-2998 colon = system: HCC-2998 colon
HCT-116 colon = system: HCT-116 colon
HCT-15 colon = system: HCT-15 colon
HL-60(TB) leukemia = system: HL-60(TB) leukemia
HOP-62 NSCLC = system: HOP-62 NSCLC
HOP-92 NSCLC = system: HOP-92 NSCLC
HS 578T breast = system: HS 578T breast
HT29 colon = system: HT29 colon
IGROV1 ovarian = system: IGROV1 ovarian
K-562 leukemia = system: K-562 leukemia
KM12 colon = system: KM12 colon
LOX IMVI melanoma = system: LOX IMVI melanoma
M14 melanoma = system: M14 melanoma
MALME-3M melanoma = system: MALME-3M melanoma
MCF7 breast = system: MCF7 breast
MDA-MB-231 breast = system: MDA-MB-231 breast
MDA-MB-435 = system: MDA-MB-435
MDA-MB-468 breast = system: MDA-MB-468 breast
MOLT-4 leukemia = system: MOLT-4 leukemia
NCI-H226 lung = system: NCI-H226 lung
NCI-H23 lung = system: NCI-H23 lung
NCI-H460 lung = system: NCI-H460 lung
NCI/ADR-RES ovarian = system: NCI/ADR-RES ovarian
OVCAR-3 ovarian = system: OVCAR-3 ovarian
OVCAR-4 ovarian = system: OVCAR-4 ovarian
OVCAR-5 ovarian = system: OVCAR-5 ovarian
OVCAR-8 ovarian = system: OVCAR-8 ovarian
PC-3 prostate = system: PC-3 prostate
RPMI-8226 leukemia = system: RPMI-8226 leukemia
RXF 393 renal = system: RXF 393 renal
SF-268 CNS = system: SF-268 CNS
SF-295 CNS = system: SF-295 CNS
SF-539 CNS = system: SF-539 CNS
SK-MEL-2 melanoma = system: SK-MEL-2 melanoma
SK-MEL-28 melanoma = system: SK-MEL-28 melanoma
SK-MEL-5 melanoma = system: SK-MEL-5 melanoma
SK-OV-3 ovarian = system: SK-OV-3 ovarian
SN12C renal = system: SN12C renal
SNB-19 CNS = system: SNB-19 CNS
SNB-75 CNS = system: SNB-75 CNS
SR leukemia = system: SR leukemia
SW-620 colon = system: SW-620 colon
T-47D breast = system: T-47D breast
TK-10 renal = system: TK-10 renal
U251 CNS = system: U251 CNS
UACC-257 melanoma = system: UACC-257 melanoma
UACC-62 melanoma = system: UACC-62 melanoma
UO-31 renal = system: UO-31 renal

FC(F)(F)c1cc2c(Cl)ncnc2n1CCN1CCOCC1
GI50 (786-0 renal): 37 µM | TGI (786-0 renal): > 100 µM | GI50 (A498 renal): > 100 µM | TGI (A498 renal): > 100 µM | GI50 (A549 NSCLC): > 100 µM | TGI (A549 NSCLC): > 100 µM | GI50 (ACHN renal): 7.65 µM | TGI (ACHN renal): > 100 µM | GI50 (BT-549 breast): 13.6 µM | TGI (BT-549 breast): 28.2 µM | GI50 (CAKI-1 renal): 27.6 µM | TGI (CAKI-1 renal): > 100 µM | GI50 (CCRF-CEM leukemia): 16.6 µM | TGI (CCRF-CEM leukemia): > 100 µM | GI50 (COLO 205 colon): 26.4 µM | TGI (COLO 205 colon): > 100 µM | GI50 (DU-145 prostate): 28.9 µM | TGI (DU-145 prostate): > 100 µM | GI50 (EKVX NSCLC): 17 µM | TGI (EKVX NSCLC): 94.6 µM | GI50 (HCC-2998 colon): 2.23 µM | TGI (HCC-2998 colon): 5.11 µM | GI50 (HCT-116 colon): 4.63 µM | TGI (HCT-116 colon): > 100 µM | GI50 (HCT-15 colon): 3.3 µM | TGI (HCT-15 colon): 17.7 µM | GI50 (HL-60(TB) leukemia): 2.09 µM | TGI (HL-60(TB) leukemia): 5.97 µM | GI50 (HOP-62 NSCLC): 38.9 µM | TGI (HOP-62 NSCLC): > 100 µM | GI50 (HOP-92 NSCLC): 19 µM | TGI (HOP-92 NSCLC): 59.8 µM | GI50 (HS 578T breast): 16.5 µM | TGI (HS 578T breast): 59 µM | GI50 (HT29 colon): 27.3 µM | TGI (HT29 colon): > 100 µM | GI50 (IGROV1 ovarian): 2.54 µM | TGI (IGROV1 ovarian): 7.67 µM | GI50 (K-562 leukemia): 3.05 µM | TGI (K-562 leukemia): 18.7 µM | GI50 (KM12 colon): 35.5 µM | TGI (KM12 colon): > 100 µM | GI50 (LOX IMVI melanoma): 1.75 µM | TGI (LOX IMVI melanoma): 3.4 µM | GI50 (M14 melanoma): 11.6 µM | TGI (M14 melanoma): 36 µM | GI50 (MALME-3M melanoma): 22.1 µM | TGI (MALME-3M melanoma): 67.3 µM | GI50 (MCF7 breast): 25 µM | TGI (MCF7 breast): > 100 µM | GI50 (MDA-MB-231 breast): 4.36 µM | TGI (MDA-MB-231 breast): 18.3 µM | GI50 (MDA-MB-435): 13.2 µM | TGI (MDA-MB-435): 29.3 µM | GI50 (MDA-MB-468 breast): 2.73 µM | TGI (MDA-MB-468 breast): 10.4 µM | GI50 (MOLT-4 leukemia): 5.71 µM | TGI (MOLT-4 leukemia): 29 µM | GI50 (NCI-H226 lung): 99 µM | TGI (NCI-H226 lung): > 100 µM | GI50 (NCI-H23 lung): 17.9 µM | TGI (NCI-H23 lung): 74.4 µM | GI50 (NCI-H460 lung): 23.2 µM | TGI (NCI-H460 lung): > 100 µM | GI50 (NCI/ADR-RES ovarian): 30.5 µM | TGI (NCI/ADR-RES ovarian): > 100 µM | GI50 (OVCAR-3 ovarian): 19.4 µM | TGI (OVCAR-3 ovarian): 43.7 µM | GI50 (OVCAR-4 ovarian): 33 µM | TGI (OVCAR-4 ovarian): > 100 µM | GI50 (OVCAR-5 ovarian): > 100 µM | TGI (OVCAR-5 ovarian): > 100 µM | GI50 (OVCAR-8 ovarian): 8.45 µM | TGI (OVCAR-8 ovarian): 29.4 µM | GI50 (PC-3 prostate): 11.3 µM | TGI (PC-3 prostate): 36.6 µM | GI50 (RPMI-8226 leukemia): 31.9 µM | TGI (RPMI-8226 leukemia): > 100 µM | GI50 (RXF 393 renal): 14.9 µM | TGI (RXF 393 renal): 40.6 µM | GI50 (SF-268 CNS): 14.8 µM | TGI (SF-268 CNS): 33.8 µM | GI50 (SF-295 CNS): 24.7 µM | TGI (SF-295 CNS): > 100 µM | GI50 (SF-539 CNS): 18.1 µM | TGI (SF-539 CNS): 42.2 µM | GI50 (SK-MEL-2 melanoma): 17.4 µM | TGI (SK-MEL-2 melanoma): 33.4 µM | GI50 (SK-MEL-28 melanoma): 13.6 µM | TGI (SK-MEL-28 melanoma): 32.9 µM | GI50 (SK-MEL-5 melanoma): 13 µM | TGI (SK-MEL-5 melanoma): 29.7 µM | GI50 (SK-OV-3 ovarian): > 100 µM | TGI (SK-OV-3 ovarian): > 100 µM | GI50 (SN12C renal): 19.7 µM | TGI (SN12C renal): > 100 µM | GI50 (SNB-19 CNS): 15.3 µM | TGI (SNB-19 CNS): 32.9 µM | GI50 (SNB-75 CNS): 10.1 µM | TGI (SNB-75 CNS): 22.4 µM | GI50 (SR leukemia): 2.85 µM | TGI (SR leukemia): 12.6 µM | GI50 (SW-620 colon): 10.5 µM | TGI (SW-620 colon): 56.1 µM | GI50 (T-47D breast): 38.8 µM | TGI (T-47D breast): > 100 µM | GI50 (TK-10 renal): > 100 µM | TGI (TK-10 renal): > 100 µM | GI50 (U251 CNS): 14.8 µM | TGI (U251 CNS): 38.8 µM | GI50 (UACC-257 melanoma): 10.5 µM | TGI (UACC-257 melanoma): 30.2 µM | GI50 (UACC-62 melanoma): 10.8 µM | TGI (UACC-62 melanoma): 32.5 µM | GI50 (UO-31 renal): 2.53 µM | TGI (UO-31 renal): 8.99 µM
